From ChEMBL document CHEMBL5226326, “Discovery of 1-Benzoyl 4-Phenoxypiperidines as Small-Molecule Inhibitors of the β-Catenin/B-Cell Lymphoma 9 Protein-Protein Interaction” (J Med Chem, 2021)
Calls of active or inactive are those of the source. The rule behind the calls is not given here.

What was measured:
[1] = target: T1, beta-catenin-B-cell lymphoma 9 protein complex (Homo sapiens, UniProt P35222); assay: Inhibition of full length beta-catenin (1 to 781 residues) (unknown origin) expressed in Escherichia coli BL21 (DE3)/N-terminal biotinylated human BCL9 HD2 (350 to 375 residues) protein-protein interaction incubated for 1 hr by Alphascreen assay
T1 sequence (P35222 whole entry): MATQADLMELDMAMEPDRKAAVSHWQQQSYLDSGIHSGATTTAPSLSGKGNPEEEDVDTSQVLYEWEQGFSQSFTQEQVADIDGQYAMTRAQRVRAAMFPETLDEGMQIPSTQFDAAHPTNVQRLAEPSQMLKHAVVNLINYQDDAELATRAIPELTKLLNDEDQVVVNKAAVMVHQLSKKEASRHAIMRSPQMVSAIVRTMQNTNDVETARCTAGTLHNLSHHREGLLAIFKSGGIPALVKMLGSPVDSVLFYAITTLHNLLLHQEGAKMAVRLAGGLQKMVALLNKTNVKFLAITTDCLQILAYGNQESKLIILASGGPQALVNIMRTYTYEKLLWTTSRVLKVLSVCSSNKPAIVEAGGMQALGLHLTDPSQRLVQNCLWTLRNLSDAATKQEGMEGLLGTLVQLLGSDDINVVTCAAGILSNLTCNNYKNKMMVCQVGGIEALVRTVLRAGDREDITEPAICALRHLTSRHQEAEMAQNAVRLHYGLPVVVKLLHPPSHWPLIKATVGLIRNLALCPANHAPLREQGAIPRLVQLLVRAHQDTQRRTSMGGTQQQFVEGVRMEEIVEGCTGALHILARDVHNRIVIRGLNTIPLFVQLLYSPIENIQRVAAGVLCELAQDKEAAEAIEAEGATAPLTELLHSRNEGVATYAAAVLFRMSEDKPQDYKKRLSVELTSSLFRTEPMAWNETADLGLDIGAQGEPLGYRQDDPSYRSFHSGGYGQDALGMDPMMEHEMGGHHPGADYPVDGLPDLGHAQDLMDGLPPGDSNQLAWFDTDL
T1 sequence (O00512 whole entry): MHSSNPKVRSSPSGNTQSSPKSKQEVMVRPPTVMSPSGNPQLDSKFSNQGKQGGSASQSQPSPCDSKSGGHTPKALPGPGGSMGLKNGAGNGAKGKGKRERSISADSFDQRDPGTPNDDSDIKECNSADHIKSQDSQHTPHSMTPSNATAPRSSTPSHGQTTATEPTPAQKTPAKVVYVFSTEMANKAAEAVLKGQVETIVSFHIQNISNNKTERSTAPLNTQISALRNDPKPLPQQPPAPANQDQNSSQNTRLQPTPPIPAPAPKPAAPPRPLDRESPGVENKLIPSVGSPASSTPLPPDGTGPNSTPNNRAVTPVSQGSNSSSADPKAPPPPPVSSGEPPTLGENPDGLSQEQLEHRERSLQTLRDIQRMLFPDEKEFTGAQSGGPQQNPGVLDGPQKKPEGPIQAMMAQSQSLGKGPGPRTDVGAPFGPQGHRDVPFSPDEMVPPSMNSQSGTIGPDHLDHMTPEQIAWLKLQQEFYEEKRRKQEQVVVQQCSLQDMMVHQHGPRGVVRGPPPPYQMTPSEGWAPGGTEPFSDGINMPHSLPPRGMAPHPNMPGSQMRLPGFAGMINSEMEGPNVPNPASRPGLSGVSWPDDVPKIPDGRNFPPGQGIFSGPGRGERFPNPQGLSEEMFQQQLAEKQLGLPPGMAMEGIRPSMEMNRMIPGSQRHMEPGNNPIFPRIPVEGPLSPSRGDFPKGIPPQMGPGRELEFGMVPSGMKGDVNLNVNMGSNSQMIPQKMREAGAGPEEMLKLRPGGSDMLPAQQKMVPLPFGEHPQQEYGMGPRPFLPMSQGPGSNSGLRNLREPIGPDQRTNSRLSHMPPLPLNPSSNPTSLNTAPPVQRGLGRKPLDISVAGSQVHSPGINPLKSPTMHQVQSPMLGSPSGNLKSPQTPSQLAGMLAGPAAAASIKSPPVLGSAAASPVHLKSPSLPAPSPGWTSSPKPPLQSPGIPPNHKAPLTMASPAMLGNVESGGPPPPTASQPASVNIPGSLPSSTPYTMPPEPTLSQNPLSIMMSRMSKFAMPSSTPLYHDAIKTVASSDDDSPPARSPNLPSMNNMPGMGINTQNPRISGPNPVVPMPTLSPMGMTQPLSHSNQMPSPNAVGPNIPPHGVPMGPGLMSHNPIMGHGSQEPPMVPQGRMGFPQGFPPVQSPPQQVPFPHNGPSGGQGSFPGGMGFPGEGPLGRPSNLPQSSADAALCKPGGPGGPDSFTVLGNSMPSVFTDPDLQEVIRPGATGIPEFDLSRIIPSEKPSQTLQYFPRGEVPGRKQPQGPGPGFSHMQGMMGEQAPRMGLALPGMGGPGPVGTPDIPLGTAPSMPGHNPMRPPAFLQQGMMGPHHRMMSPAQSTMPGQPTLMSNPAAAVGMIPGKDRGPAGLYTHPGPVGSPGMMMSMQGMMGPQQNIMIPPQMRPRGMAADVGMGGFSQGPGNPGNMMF

[2] = target: T1, beta-catenin-B-cell lymphoma 9 protein complex; assay: Inhibition of full length beta-catenin (1 to 781 residues) (unknown origin) expressed in Escherichia coli BL21 (DE3)/N-terminal biotinylated human BCL9 HD2 (350 to 375 residues) protein-protein interaction assessed as inhibition constant incubated for 1 hr by Alphascreen assay
[3] = target: T2, beta-catenin-B-cell lymphoma 9 protein complex (Homo sapiens) (UniProt P35222+O00512); assay: Inhibition of full length wild type beta-catenin/N-terminal biotinylated human BCL9 HD2 (350 to 375 residues) protein-protein interaction in human SW480 cells at 1 to 10 uM incubated for 3 hr by immunoblot based pull-down assay; type: cell-based; conditions: dose 1-10 µM
SW480 [4] = assay: Inhibition of full length beta-catenin D145A mutant/N-terminal biotinylated human BCL9 HD2 (350 to 375 residues) protein-protein interaction in human SW480 cells at 1 to 10 uM incubated for 3 hr by immunoblot based pull-down assay; type: cell-based; conditions: dose 1-10 µM
SW480 [5] = assay: Inhibition of full length beta-catenin E155A mutant/N-terminal biotinylated human BCL9 HD2 (350 to 375 residues) protein-protein interaction in human SW480 cells at 1 to 10 uM incubated for 3 hr by immunoblot based pull-down assay; type: cell-based; conditions: dose 1-10 µM
Homo sapiens [6] = species: Homo sapiens; assay: Selectivity ratio, ratio of Ki for inhibition of full length beta-catenin (1 to 781 residues) (unknown origin) expressed in Escherichia coli BL21 (DE3)/N-terminal biotinylated human BCL9 HD2 (350 to 375 residues) protein-protein interaction to Ki for inhibition of full length beta-catenin (1 to 686 residues) (unknown origin) expressed in Escherichia coli BL21 (DE3)/N-terminal biotinylated human E-cadherin (824 to 877 residues) protein-protein interaction
[7] = target: T2, beta-catenin-B-cell lymphoma 9 protein complex (Homo sapiens); assay: Inhibition of beta-catenin/BCL9 protein-protein interaction in human HCT-116 cells at 1 to 12.5 uM incubated for 24 hr by Co-immunoprecipitation assay; type: cell-based; conditions: dose 1-12.5 µM
[8] = target: Catenin beta-1/Cadherin-1 (Homo sapiens) (UniProt P35222+P12830); assay: Inhibition of beta-catenin/E-cadherin protein-protein interaction in human HCT-116 cells at 1 to 12.5 uM incubated for 24 hr by Co-immunoprecipitation assay; type: cell-based; conditions: dose 1-12.5 µM
Chain of Catenin beta-1/Cadherin-1 (Homo sapiens) (P12830 155-882 partner limits assumed, one chain of several): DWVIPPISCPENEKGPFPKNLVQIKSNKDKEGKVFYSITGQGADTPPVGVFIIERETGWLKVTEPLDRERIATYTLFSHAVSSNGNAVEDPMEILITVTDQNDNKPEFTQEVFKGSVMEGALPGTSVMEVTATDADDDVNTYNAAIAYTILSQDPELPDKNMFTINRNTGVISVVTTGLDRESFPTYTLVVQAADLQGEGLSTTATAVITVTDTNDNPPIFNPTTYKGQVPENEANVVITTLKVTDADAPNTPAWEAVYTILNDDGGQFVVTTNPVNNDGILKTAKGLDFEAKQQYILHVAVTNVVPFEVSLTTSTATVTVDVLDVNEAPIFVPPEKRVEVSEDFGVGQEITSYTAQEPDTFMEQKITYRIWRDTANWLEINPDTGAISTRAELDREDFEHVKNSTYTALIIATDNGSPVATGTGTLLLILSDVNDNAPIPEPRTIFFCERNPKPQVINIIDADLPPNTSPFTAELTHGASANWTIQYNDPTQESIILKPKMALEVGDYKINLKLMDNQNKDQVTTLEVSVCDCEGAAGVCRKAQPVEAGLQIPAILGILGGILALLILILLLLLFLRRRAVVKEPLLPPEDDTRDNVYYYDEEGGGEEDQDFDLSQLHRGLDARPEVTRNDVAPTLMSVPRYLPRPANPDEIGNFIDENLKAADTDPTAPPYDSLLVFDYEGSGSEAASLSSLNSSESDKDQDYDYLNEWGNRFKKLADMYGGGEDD

SW480 [9] = assay: Inhibition of Wnt/beta-catenin transactivation signalling in human SW480 cells transfected with renilla luciferase and FOPFlash reporter gene at 1.56 uM incubated for 24 hrs by dual-luciferase assay (reference value: 100%); type: cell-based; conditions: values are per cent of control
SW480 [10] = assay: Inhibition of Wnt/beta-catenin transactivation signalling in human SW480 cells transfected with renilla luciferase and FOPFlash reporter gene at 3.125 uM incubated for 24 hrs by dual-luciferase assay (reference value: 100%); type: cell-based; conditions: values are per cent of control
SW480 [11] = assay: Inhibition of Wnt/beta-catenin transactivation signalling in human SW480 cells transfected with renilla luciferase and FOPFlash reporter gene at 6.25 uM incubated for 24 hrs by dual-luciferase assay (reference value: 100%); type: cell-based; conditions: values are per cent of control
Homo sapiens [12] = species: Homo sapiens; assay: Selectivity ratio, ratio of IC50 for inhibition of Wnt/beta-catenin transactivation signalling in human HEK293 cells transfected with TOPFlash reporter gene to IC50 for inhibition of Wnt/beta-catenin D145A/E155A mutant transactivation signalling in human HEK293 cells transfected with TOPFlash reporter gene; type: cell-based
SW480 [13] = assay: Inhibition of Wnt/beta-catenin signaling pathway in human SW480 cells assessed as reduction in Axin2 level at 12.5 uM incubated for 24 hrs by qRT-PCR analysis (reference value: 100%); type: cell-based; conditions: values are per cent of control
SW480 [14] = assay: Inhibition of Wnt/beta-catenin signaling pathway in human SW480 cells assessed as reduction in BCL9L level at 12.5 uM incubated for 24 hrs by qRT-PCR analysis (reference value: 100%); type: cell-based; conditions: values are per cent of control
SW480 [15] = assay: Inhibition of Wnt/beta-catenin signaling pathway in human SW480 cells assessed as reduction in MMP7 level at 12.5 uM incubated for 24 hrs by qRT-PCR analysis (reference value: 100%); type: cell-based; conditions: values are per cent of control
SW480 [16] = assay: Inhibition of Wnt/beta-catenin signaling pathway in human SW480 cells assessed as reduction in HPRT level at 12.5 uM incubated for 24 hrs by qRT-PCR analysis (reference value: 100%); type: cell-based; conditions: values are per cent of control
SW480 [17] = assay: Inhibition of Wnt/beta-catenin signaling pathway in human SW480 cells assessed as reduction in Axin2 level at 1 to 12.5 uM incubated for 24 hrs by western blot analysis; type: cell-based; conditions: dose 1-12.5 µM

SMILES	IC50 [1] [µM]	Ki [2] [µM]	further results
CC(C)(C)C1CCC(c2cc(C(=O)N3CCC(Oc4cc(N5CCNCC5)ccc4Cl)CC3)ccc2O[C@H]2CCNC2)CC1 (mixture of isomers)	2.7	2.2	–
CC(C)(C)C1CCC(c2cc(C(=O)N3CCC(Oc4cc(N5CCNCC5)cc(F)c4F)CC3)ccc2O[C@H]2CCNC2)CC1 (mixture of isomers)	3.7	3.1	–
CN(C)C(=O)c1ccc(N2CCNCC2)cc1OC1CCN(C(=O)c2ccc(O[C@H]3CCNC3)c(C3CCC(C(C)(C)C)CC3)c2)CC1 (mixture of isomers)	> 100	> 84	–
CC(C)(C)C1CCC(c2cc(C(=O)N3CCC(Oc4ccc(F)c(N5CCNCC5)c4)CC3)ccc2O[C@H]2CCNC2)CC1 (mixture of isomers)	6.7	5.6	–
COC(=O)c1ccc(N2CCNCC2)cc1OC1CCN(C(=O)c2ccc(O[C@H]3CCNC3)c(C3CCC(C(C)(C)C)CC3)c2)CC1 (mixture of isomers)	17	14	–
CC(C)(C)C1CCC(c2cc(C(=O)N3CCC(Oc4cccc(N5CCNCC5)c4)CC3)ccc2O[C@H]2CCNC2)CC1 (mixture of isomers)	20	17	–
CNC(=O)c1ccc(N2CCNCC2)cc1OC1CCN(C(=O)c2ccc(O[C@H]3CCNC3)c(C3CCC(C(C)(C)C)CC3)c2)CC1 (mixture of isomers)	47	38	–
CC(C)(C)C1CCC(c2cc(C(=O)N3CCC(Oc4cc(N5CCNCC5)ccc4C(N)=O)CC3)ccc2O[C@H]2CCNC2)CC1 (mixture of isomers)	20	16	–
CC(C)(C)C1CCC(c2cc(C(=O)N3CCC(Oc4cc(N5CCNCC5)ccc4C#N)CC3)ccc2O[C@@H]2CNC[C@H]2OCCOCCOCCNC(=O)CCCC[C@@H]2SC[C@@H]3NC(=O)N[C@@H]32)CC1 (mixture of isomers)	–	–	inhibition [3]: Active; inhibition (SW480 [4]): inactive; inhibition (SW480 [5]): inactive
CC(C)(C)C1CCC(c2cc(C(=O)N3CCC(Oc4cc(N5CCNCC5)ccc4C#N)CC3)ccc2O[C@H]2CCNC2)CC1 (mixture of isomers; 36)	1.5	1.2	–
CC(C)(C)C1CCC(c2cc(C(=O)N3CCC(Oc4cc(N5CCNCC5)ccc4C#N)CC3)ccc2O[C@H]2CCNC2)CC1 (mixture of isomers; 44)	3.3	2.7	–
CC(C)(C)C1CCC(c2cc(C(=O)N3CCC(Oc4cc(N5CCNCC5)ccc4C#N)CC3)ccc2O[C@H]2CCNC2)CC1 (mixture of isomers; cis)	–	–	Ratio Ki (Homo sapiens [6]): 20; inhibition [7]: Active; inhibition [8]: inactive; residual activity (SW480 [9]): 100%; residual activity (SW480 [10]): 104%; residual activity (SW480 [11]): 96.5%; Ratio IC50 (Homo sapiens [12]): 4.2; response, % of control (SW480 [13]): 9.28%; response, % of control (SW480 [14]): 18.6%; response, % of control (SW480 [15]): 41.8%; response, % of control (SW480 [16]): 99.6%; inhibition (SW480 [17]): Active
